Experimental data reported in patent US5302586A, “Phosphonomethyl-imidazo[1,2-a]pyrimidine-2-carboxylic acid compounds for treatment of neurotoxic injury” (G. D. Searle & Co., priority 1992, dated 1994).

Tests used:
[1] = system: NMDA; conditions: CPP binding to rat brain hippocampal tissue, Murphy et al 1987; cited from earlier work
[2] = molecular target: [^3 H]MK-801 binding, rat SPM (NMDA receptor); test: [^3 H]MK-801 Binding assay (Triton X-100 treated rat synaptic plasma membranes); conditions: 5.0 nM [^3 H]MK-801, L-glutamate 10.0 nM, 25° C., 30 min, pH 7.4
Experimental: Modulation of [^3 H]MK-801 binding was performed using Triton X-100 (0.04% v/v) treated rat SPM that had been extensively washed. Assay incubations were at 25° C. for 30 min. and contained 5.0 nM [^3 H]MK-801, L-glutamate (10.0 nM), and various concentrations of the tested compound of the invention in 50 mM Tris/acetate, pH 7.4. The assay was stopped by rapid filtration, using Brandel MB-48 Harvester, through Whatman GF/B filters treated with 0.05% polyethylenimine and the samples washed four times with 2.0 mL cold buffer. The radioactivity associated with the filter was determined by liquid scintillation spectrometry. Nonspecific binding was defined using 60 μM MK-801. IC50 were determined using a logit-log transformation of the binding data.

[3] = molecular target: NMDA receptor site (NMDA-specific L-[^3 H]glutamate recognition site); test: NMDA-Selective Glutamate Binding Assay (L-[^3 H]glutamate, synaptic plasma membranes); set-up: species or system rat
Experimental: Synaptic plasma membranes (SPM) were prepared as previously described [Monohan, J. B. and Michel, J., "Identification and Characterization of an N-methyl-D-aspartate-specific L[^3 H]glutamate Recognition Site in Synaptic Plasma Membranes, J. Neurochem., 48, 1699-1708 (1987)]. The SPM were stored at a concentration of 10-15 mg/ml in 0.32M sucrose, 0.5 mM EDTA, 1 mM MgSO4, 5 mM Tris/SO4, pH 7.4, under liquid nitrogen. The identity and purity of the subcellular fractions were confirmed by both electron microscopy and marker enzymes. Protein concentrations were determined by using a modification of the method of Lowry [Ohnishi, S. T. and Barr, J. K., "A Simplified Method of Quantitating Proteins Using the Biuret and Phenol Reagents", Anal. Biochem., 86, 193-197 (1978)]. The SPM were treated identically for the [^3 H]AMPA (QUIS), [^3 H]kainate and sodium-dependent L-[^3 H]-glumatate binding assays. […] Beckman MP scintillation cocktail containing 7 mL/1 acetic acid was then added and the samples counted on a Beckman LS 5800 or 3801 liquid scintillation counter with automatic corrections for quenching and counting efficiency. […] Radioligand binding to the synaptic plasma membranes was analyzed using Scatchard and Hill transformations and the Ki values of the compounds determined using logit-log transformations. […]

O=C(O)C1CN(CCCP(=O)(O)O)CCN1 (stereo not shown) [CPP, 3-(2-carboxypiperazin-4-yl)propyl-1-phosphonic acid]
NMDA antagonist potency and selectivity [1]: potent and selective NMDA antagonist

O=C(O)c1cn2c(CP(=O)(O)O)ccnc2n1 [Example 1, 5-Phosphonomethyl-imidazo[1,2-a]pyrimidine-2-carboxylic acid]
Ki [2]: 4.6 µM | Ki ([3]; [^3 H]GLU, Triton X-100 treated SPM, 50 mM Tris/acetate pH 7.4, 0°-4° C., 10 min): 8.8 µM

O=C(O)c1cn2ccc(CP(=O)(O)O)nc2n1 [Example 2, 7-phosphonomethyl-imidazo[1,2-a]pyrimidine-2-carboxylic acid]
[^3 H]GLU % inhibition ([3]; @ 10 μM): 14%
